What was measured:
IL10 mRNA = test: RT-PCR for IL10 mRNA in heart graft tissues; assay type: in vivo, rat; conditions: days 7 and 10; CsA 10 mg/kg/day, tacrolimus 3.2 mg/kg/day from day 5
Description: At day 5, 7 and 10 after transplantation, total RNA was extracted from heart graft tissues and tested by reverse transcriptase-polymerase chain reaction (RT-PCR) for cytokine mRNAs. Total RNA was extracted from transplanted heart tissue by TRIZOL (GIBCO BRL, Gaithersburg, Md.). RT-PCR was performed by reverse transcribing total RNA into cDNA using random hexamers (GIBCO BRL, Gaithersburg, Md.). The reverse-transcribed material was added to the PCR mixture with sense and anti-sense primers of IFNγ, IL2, IL4, IL10, IL1β, IL6, TNFα, TGFβ, Granzyme, Perforin or G3PDH and Taq DNA polymerase (Boehringer Mann heim GmbH, Mannheim, Germany). Amplification was performed with optimized cycles for each cytokine or G3PDH by ThermalCycler (Perkin-Elmer, Branchburg, N.J.). PCR product was applied to 2.3% agarose gel, resolved by electrophoresis, and visualized by ethidium bromide staining. The intensity of the gene-specific bands was obtained by the Gel Doc 1000 documentation system (BIO-RAD Laboratories, Hercules, Calif.). G3PDH mRNA was amplified as an internal control for RT-PCR.

[1] = test system: T-cell-dependent antibody production, graft vs. host reactivity, delayed-type sensitivity reactions; conditions: suppressing T-cell-dependent antibody production; cited from earlier work
[2] = test system: renal allografts (BN to LEW); test: Rescue of ongoing renal allograft rejection (drug from day 2 or day 4 for 13 days); assay type: in vivo, rat; conditions: untreated allograft controls rejected at day 8
Description: Male LEW rats weighing 250-350 g and male BN rats weighing 150-250 g were kept under specific pathogen-free conditions in the animal facility at Fujisawa Pharmaceutical Co., Ltd., Osaka, Japan. […] The donor ureter was directly implanted into the recipient bladder over a fine polyethylene internal stent. All recipients were bilaterally nephrectomized at the time of transplantation. The graft ischemic time was approximately 30 minutes. Survival of the kidney transplant was measured as time of rat survival. Graft rejection was confirmed by histological examination of kidney tissue from recipients with the observation of interstitial hemorrhage, tubular necrosis, venous endotheliatitis and diffuse lymphoplasmacytic infiltration indicating graft rejection. […] Control isograft and allograft recipients received either distilled water, olive oil, or placebo after transplantation.

liver transplantation = conditions: clinical organ transplantation, estimated; cited from earlier work
[3] = test system: CD4+, CD8+, NKR-P1A, and ED2 positive cells; test: Immunohistological examination of cell infiltration into heart allograft tissue; assay type: in vivo, rat; conditions: CsA 10 mg/kg/day, tacrolimus 3.2 mg/kg/day orally from day 5
Description: The presence of CD4+, CD8+, NKR-P1A, and ED2 positive cells was examined on day 5, 7 and 10 after transplantation by immunohistological examination of graft tissue immunostained with specific antibodies to various immune cell populations. For immunohistology, 4 μm frozen sections of heart tissue were cut, fixed with acetone and exposed to monoclonal antibodies (Pharmingen, San Diego, Calif.) against markers for CD4+ (helper T cells), CD8^+ (cytotoxic T cells), NKR-P1A (natural killer cells), and ED2 (macrophage cells) positive cells. Then the sections were incubated with peroxidase-conjugated anti-mouse IgG antibodies. The bound peroxidase was detected using 3-amino-9-ethylcarbazole. The results were scored quantitatively. In each tissue section, three random representative fields were counted by visual microscope (×40) to determine the average cell number per tissue.

[4] = test system: heart allografts, ongoing graft rejection; test: Rescue of ongoing heart allograft rejection (drug from day 5 for 10 days); assay type: in vivo, rat; conditions: 3.2 mg/kg/day on days 5-14 post-transplantation
Description: (§1) Inbred male Lewis rats (LEW) (RT1^1), weighing 200-250 g, were used as heart transplantation recipients. Inbred male LEW and inbred male Brown Norway (BN) (RT1^a), weighing 150-200 g, were used as isograft and allograft donor rats, respectively. […] Rejection of heart grafts was defined as the complete cessation of impulse and was confirmed visually after laparatomy. […] Control isograft and allograft recipients (5 rats each) received no immunosuppressant drugs after transplantation.
Therefore, drug administration was halted from day 0-day 4 after heart transplantation in order to initiate the transplantation process.

[5] = test system: heart allografts (BN to LEW); test: Rat heart transplantation, primary therapy to prevent acute allograft rejection (drug day 0 to day 10); assay type: in vivo; conditions: for median survival time (MST) of heart allografts: day 0 to day 10 after transplantation, allograft control 6 days
Description: as §1

IL2 and IL4 protein = test: ELISA assay of IL2 and IL4 proteins in serum peripheral lymphocytes of heart allograft recipients; assay type: in vivo, rat; conditions: day 7 post-transplantation; optimal doses from day 5
Description: (§2) The transplantation method described in Example 5 was used. […] The levels of IL2, IL4 and IL10 proteins in serum peripheral lymphocytes were measured at day 7 post-transplantation by ELISA assay.

allograft survival = conditions: optimal doses administered several days after transplantation, after allograft rejection has begun; cited from earlier work
IL10 protein = test: ELISA assay of IL10 protein in serum peripheral lymphocytes of heart allograft recipients; assay type: in vivo, rat; conditions: day 7 post-transplantation, compared with the allograft control; optimal doses from day 5
Description: as §2

## C=CC[C@@H]1/C=C(\C)C[C@H](C)C[C@H](OC)[C@H]2O[C@@](O)(C(=O)C(=O)N3CCCC[C@H]3C(=O)O[C@H](/C(C)=C/[C@@H]3CC[C@@H](O)[C@H](OC)C3)[C@H](C)[C@@H](O)CC1=O)[C@H](C)C[C@@H]2OC [tacrolimus, Tacrolimus]
IL10 mRNA
  suppression of IL10 mRNA expression: more than CsA
[1]
  potency relative to CsA in vivo: 10 times
[2]; 3.2 mg/kg/day from day 2-14 after grafting
  recipient rats that survived more than 50 days: all of 5
[2]; 3.2 mg/kg/day from day 4-16 after grafting
  recipient rats that survived more than 50 days: 3 of 5
Liver transplantation
  potency relative to CsA in liver transplantation: three to ten orders of magnitude more potent
[3]; day 7
  suppression of all of the cell infiltration into the local graft tissues: no significant suppression
[3]; day 10
  blocking CD8+ and NKR-P1A cell infiltration: significantly blocked
  blocking the CD4+ and ED2 cell filtration: partially blocking
[4]; versus allograft control
  extension of the survival of the graft: about 13 days
[4]; allograft control 6 days
  MST of heart allografts: 19 days
[5]; 1.0 mg/kg/day orally
  median survival time (MST) of heart allografts: 12 days
[5]; 3.2 mg/kg/day orally
  median survival time (MST) of heart allografts: 19 days
[5]; 10 mg/kg/day orally
  median survival time (MST) of heart allografts: 21 days
[5]; primary therapy, oral, day 0 to day 10, based on MST
  optimal dose: 3.2 mg/kg/day
IL2 and IL4 protein
  suppression of the expression of IL2 and IL4 protein: equally
Allograft survival
  effect on allograft survival: significantly increase allograft survival
IL10 protein
  suppression of IL10 protein expression: 73%

Reference: patent US20050025769A1, “Method of suppressing ongoing acute allograft rejection” (Fujisawa Pharmaceutical Company, Ltd., priority 1999, published 2005)
